Laboratory results reported in patent publication US9079930B2, “Substituted pyrimidines” (MERCK SHARP & DOHME CORP., priority 2011, dated 2015).

biological target: T1, FLAG-tagged full length PHD2 (Homo sapiens, UniProt Q9GZT9); assay: PHD2 inhibition assay (time resolved fluorescence, HIF-1α peptide hydroxylation, VHL complex detection); type: biochemical; conditions: 0.2 μM 2-oxoglutarate, 0.5 μM HIF-1α peptide
T1 construct: FLAG-tagged full length PHD2 expressed in and purified from baculovirus-infected Sf9 cells; FLAG; made in house; host or cells: baculovirus-infected Sf9 cells
Description: To each well of a 96-well plate was added 1 μL of test compound in DMSO and 20 μl of assay buffer (50 mM Tris pH 7.4/0.01% Tween-20/0.1 mg/ml bovine serum albumin/10 μM ferrous sulfate/i mM sodium ascorbate/20 μg/ml catalase) containing 0.15 μg/ml FLAG-tagged full length PHD2 expressed in and purified from baculovirus-infected Sf9 cells. After a 30 min preincubation at room temperature, the enzymatic reactions were initiated by the addition of 4 μL of substrates (final concentrations of 0.2 μM 2-oxoglutarate and 0.5 μM HIF-1α peptide biotinyl-DLDLEMLAPYIPMDDDFQL (SEQ ID NO: 1)). After 2 hr at room temperature, the reactions were terminated and signals were developed by the addition of a 25 μL quench/detection mix to a final concentration of 1 mM ortho-phenanthroline, 0.1 mM EDTA, 0.5 nM anti-(His)6 LANCE reagent (Perkin-Elmer Life Sciences), 100 nM AF647-labeled streptavidin (Invitrogen), and 2 μg/ml (His)6-VHL complex (S. Tan (2001) Protein Expr. Purif. 21, 224-234). The ratio of time resolved fluorescence signals at 665 and 620 nm was determined, and percent inhibition was calculated relative to an uninhibited control sample run in parallel.

T1 sequence (Q9GZT9 whole entry): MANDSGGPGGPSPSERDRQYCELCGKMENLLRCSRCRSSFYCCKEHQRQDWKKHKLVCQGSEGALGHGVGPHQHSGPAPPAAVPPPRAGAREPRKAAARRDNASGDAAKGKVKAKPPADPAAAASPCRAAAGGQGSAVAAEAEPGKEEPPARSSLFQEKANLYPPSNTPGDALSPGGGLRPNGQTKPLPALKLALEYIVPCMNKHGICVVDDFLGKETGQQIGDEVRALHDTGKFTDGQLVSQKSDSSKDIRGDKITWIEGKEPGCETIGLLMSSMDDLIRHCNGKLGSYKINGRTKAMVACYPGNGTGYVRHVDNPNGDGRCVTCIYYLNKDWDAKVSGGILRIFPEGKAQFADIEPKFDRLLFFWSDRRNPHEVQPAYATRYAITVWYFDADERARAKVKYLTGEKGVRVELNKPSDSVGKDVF

SMILES | IC50 [nM]
COc1ccc(C(NC(=O)c2cnc(-c3cccnn3)nc2O)c2ccc([PH](=O)O)cc2)cc1 (stereo not shown) [Compound 9-2, 4-((4-hydroxy-2-(pyridazin-3-yl)pyrimidine-5-carboxamido)(4-methoxyphenyl)methyl)phenylphosphinic acid] | 0.5 to 20
CCOP(=O)(OCC)C(NC(=O)c1cnc(-n2cccn2)nc1O)c1ccc(OC)cc1 (stereo not shown) [Compound 10-1, Diethyl (4-hydroxy-2-(1H-pyrazol-1-yl)pyrimidine-5-carboxamido)(4-methoxyphenyl)methylphosphonate] | 0.5 to 20
CCOP(=O)(OCC)c1ccc(C(C)C(=O)Nc2cnc(-n3cccn3)nc2O)cc1 (stereo not shown) [Compound 11-1, Diethyl 4-(1-(4-hydroxy-2-(1H-pyrazol-1-yl)pyrimidin-5-ylamino)-1-oxopropan-2-yl)phenylphosphonate] | 100 to 10000
CCOP(=O)(OCC)c1ccc(C(C)(C)C(=O)Nc2cnc(-n3cccn3)nc2O)cc1 [Compound 12-1, Diethyl 4-(1-(4-hydroxy-2-(1H-pyrazol-1-yl)pyrimidin-5-ylamino)-2-methyl-1-oxopropan-2-yl)phenylphosphonate] | 100 to 10000
CCOP(=O)(OCC)c1ccc(C(C(=O)Nc2cnc(-n3cccn3)nc2O)C(C)C)cc1 (stereo not shown) [Compound 13-1, Diethyl 4-(1-(4-hydroxy-2-(1H-pyrazol-1-yl)pyrimidin-5-ylamino)-3-methyl-1-oxobutan-2-yl)phenylphosphonate] | 20 to 100
CCOP(=O)(OCC)c1ccc(C(C(=O)Nc2cnc(-n3cccn3)nc2O)c2ccccc2)cc1 (stereo not shown) [Compound 14-1, Diethyl 4-(2-(4-hydroxy-2-(1H-pyrazol-1-yl)pyrimidin-5-ylamino)-2-oxo-1-phenylethyl)phenylphosphonate] | 0.5 to 20
CCOP(=O)(OCC)c1ccc(C(C(=O)Nc2cnc(-c3cccnn3)nc2O)c2ccccc2)cc1 (stereo not shown) [Compound 14-2, Diethyl 4-(2-(4-hydroxy-2-(pyridazin-3-yl)pyrimidin-5-ylamino)-2-oxo-1-phenylethyl)phenylphosphonate] | 100 to 10000
CC(NC(=O)c1cnc(-n2cccn2)nc1O)c1ccc(P(=O)(O)O)cc1 (stereo not shown) [Compound 15-1, 4-(1-(4-hydroxy-2-(1H-pyrazol-1-yl)pyrimidine-5-carboxamido)ethyl)phenylphosphonic acid] | 20 to 100
C[C@@H](NC(=O)c1cnc(-n2cccn2)nc1O)c1ccc(P(=O)(O)O)cc1 [Compound 15-2, (R)-4-(1-(4-hydroxy-2-(1H-pyrazol-1-yl)pyrimidine-5-carboxamido)ethyl)phenyl phosphonic acid] | 0.5 to 20
C[C@H](NC(=O)c1cnc(-n2cccn2)nc1O)c1ccc(P(=O)(O)O)cc1 [Compound 15-3, (S)-4-(1-(4-hydroxy-2-(1H-pyrazol-1-yl)pyrimidine-5-carboxamido)ethyl)phenylphosphonic acid] | 100 to 10000
CCCP(=O)(O)c1ccc(C(NC(=O)c2cnc(-n3cccn3)nc2O)c2ccccc2)cc1 (stereo not shown) [Compound 16-1, 4-((4-hydroxy-2-(1H-pyrazol-1-yl)pyrimidine-5-carboxamido)(phenyl)methyl)phenyl(propyl)phosphinic acid] | 0.5 to 20
CP(=O)(O)c1ccc(C(NC(=O)c2cnc(-n3cccn3)nc2O)c2ccc(F)cc2)cc1 (stereo not shown) [Compound 17-1, 4-((4-fluorophenyl)(4-hydroxy-2-(1H-pyrazol-1-yl)pyrimidine-5-carboxamido)methyl)phenyl(methyl)phosphinic acid] | 0.5 to 20
CP(=O)(O)c1ccc([C@H](NC(=O)c2cnc(-n3cccn3)nc2O)c2ccc(F)cc2)cc1 [Compound 18-1, 4-((R)-(4-fluorophenyl)(4-hydroxy-2-(1H-pyrazol-1-yl)pyrimidine-5-carboxamido)methyl)phenyl(methyl)phosphinic acid] | 0.5 to 20
CP(=O)(O)c1ccc([C@@H](NC(=O)c2cnc(-n3cccn3)nc2O)c2ccc(F)cc2)cc1 [Compound 19-1, 4-((S)-(4-fluorophenyl)(4-hydroxy-2-(1H-pyrazol-1-yl)pyrimidine-5-carboxamido)methyl)phenyl(methyl)phosphinic acid] | 0.5 to 20
CP(=O)(O)c1ccc([C@@H](NC(=O)c2cnc(-n3cccn3)nc2O)c2ccc(F)cc2F)cc1 [Compound 20-1, 4-((R)-(2,4-difluorophenyl)(4-hydroxy-2-(1H-pyrazol-1-yl)pyrimidine-5-carboxamido)methyl)phenyl(methyl)phosphinic acid] | 0.5 to 20
CP(=O)(O)c1ccc([C@H](NC(=O)c2cnc(-n3cccn3)nc2O)c2ccc(F)cc2F)cc1 [Compound 21-1, 4-((S)-(2,4-difluorophenyl)(4-hydroxy-2-(1H-pyrazol-1-yl)pyrimidine-5-carboxamido)methyl)phenyl(methyl)phosphinic acid] | 0.5 to 20
CP(=O)(O)c1ccc([C@@H](NC(=O)c2cnc(-n3cccn3)nc2O)c2ccccc2)cc1 [Compound 22-1, 4-((S)-(4-hydroxy-2-(1H-pyrazol-1-yl)pyrimidine-5-carboxamido)(phenyl)methyl)phenyl(methyl)phosphinic acid] | 0.5 to 20
CP(=O)(O)c1ccc([C@H](NC(=O)c2cnc(-n3cccn3)nc2O)c2ccccc2)cc1 [Compound 23-1, 4-((R)-(4-hydroxy-2-(1H-pyrazol-1-yl)pyrimidine-5-carboxamido)(phenyl)methyl)phenyl(methyl)phosphinic acid] | 0.5 to 20
CP(=O)(O)c1cccc([C@H](NC(=O)c2cnc(-n3cccn3)nc2O)c2ccccc2)c1 [Compound 24-1, 3-((R)-(4-hydroxy-2-(1H-pyrazol-1-yl)pyrimidine-5-carboxamido)(phenyl)methyl)phenyl(methyl)phosphinic acid] | 0.5 to 20
CP(=O)(O)c1cccc([C@@H](NC(=O)c2cnc(-n3cccn3)nc2O)c2ccccc2)c1 [Compound 25-1, 3-((S)-(4-hydroxy-2-(1H-pyrazol-1-yl)pyrimidine-5-carboxamido)(phenyl)methyl)phenyl(methyl)phosphinic acid] | 0.5 to 20
CP(=O)(O)c1ccc([C@H](NC(=O)c2cnc(-n3cccn3)nc2O)C2CCCCC2)cc1 [Compound 26-1, 4-((R)-cyclohexyl(4-hydroxy-2-(1H-pyrazol-1-yl)pyrimidine-5-carboxamido)methyl)phenyl(methyl)phosphinic acid] | 0.5 to 20
CP(=O)(O)c1ccc([C@@H](NC(=O)c2cnc(-n3cccn3)nc2O)C2CCCCC2)cc1 [Compound 27-1, 4-((S)-cyclohexyl(4-hydroxy-2-(1H-pyrazol-1-yl)pyrimidine-5-carboxamido)methyl)phenyl(methyl)phosphinic acid] | 0.5 to 20
CP(=O)(O)c1ccc([C@@H](NC(=O)c2cnc(-n3cc(F)cn3)nc2O)c2ccc(F)cc2)cc1 [Compound 28-1, 4-((S)-(2-(4-fluoro-1H-pyrazol-1-yl)-4-hydroxypyrimidine-5-carboxamido)(4-fluorophenyl)methyl)phenyl(methyl)phosphinic acid] | 100 to 10000
CP(=O)(O)c1ccc([C@H](NC(=O)c2cnc(-n3cc(F)cn3)nc2O)c2ccc(F)cc2)cc1 [Compound 29-1, 4-((R)-(2-(4-fluoro-1H-pyrazol-1-yl)-4-hydroxypyrimidine-5-carboxamido)(4-fluorophenyl)methyl)phenyl(methyl)phosphinic acid] | 0.5 to 20
O=C(NC(c1ccccc1)P(=O)(O)O)c1cnc(-c2cccnn2)nc1O (stereo not shown) [Compound 30-1, (4-hydroxy-2-(pyridazin-3-yl)pyrimidine-5-carboxamido)(phenyl)methylphosphonic acid] | 20 to 100
